Target: IN-GCN2 interaction (6xHis-IN / GST-GCN2) (UniProt P04585+Q9P2K8)
Assay: biochemical
Type: binding, HIV-1 IN; human GCN2
Conditions: screen, single dose 100 µM, single replicate; residual AlphaLISA signal normalized to DMSO control

Sequence of IN-GCN2 interaction (6xHis-IN / GST-GCN2) (Q9P2K8 192-1024, other chains not shown): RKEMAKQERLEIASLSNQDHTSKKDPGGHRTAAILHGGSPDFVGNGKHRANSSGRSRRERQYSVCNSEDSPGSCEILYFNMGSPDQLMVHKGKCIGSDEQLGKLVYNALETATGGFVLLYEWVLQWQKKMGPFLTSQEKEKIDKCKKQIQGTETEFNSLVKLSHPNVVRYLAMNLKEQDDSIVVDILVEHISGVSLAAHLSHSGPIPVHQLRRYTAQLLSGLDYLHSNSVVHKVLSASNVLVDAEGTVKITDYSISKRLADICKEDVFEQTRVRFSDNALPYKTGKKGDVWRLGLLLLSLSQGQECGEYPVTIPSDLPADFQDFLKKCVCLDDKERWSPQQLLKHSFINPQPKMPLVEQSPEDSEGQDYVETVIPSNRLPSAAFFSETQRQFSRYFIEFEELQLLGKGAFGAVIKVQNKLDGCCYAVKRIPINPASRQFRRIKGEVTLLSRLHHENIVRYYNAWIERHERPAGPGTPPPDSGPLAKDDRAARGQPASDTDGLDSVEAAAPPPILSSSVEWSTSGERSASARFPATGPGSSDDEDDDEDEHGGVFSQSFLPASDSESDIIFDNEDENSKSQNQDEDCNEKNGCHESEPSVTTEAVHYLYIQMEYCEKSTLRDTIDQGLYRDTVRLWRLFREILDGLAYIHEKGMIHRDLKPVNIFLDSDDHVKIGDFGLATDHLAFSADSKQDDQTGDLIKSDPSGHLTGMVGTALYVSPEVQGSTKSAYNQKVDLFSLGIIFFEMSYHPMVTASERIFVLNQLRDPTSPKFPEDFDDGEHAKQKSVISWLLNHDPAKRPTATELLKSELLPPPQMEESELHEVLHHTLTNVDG

First: Br.CN1CCc2cc3c(cc2C1)OCO3 [NSC121859]
Second: COc1ccc2c(c1OC)-c1c3c(cc4c1[C@H](C2)N(C)CC4)OCO3 [NSC785162]
The “IN-GCN2 interaction (%)” value of the first is higher: 114.20% for the first, 46.45% for the second.

Going from `Nc1ncnc2c1ncn2[C@@H]1O[C@H](CO)[C@@H](O)[C@H]1O` [NSC7652] to `O=C1C=C([C@@H]2O[C@H](CO)[C@@H](O)[C@H]2O)C(=O)N1` [NSC93047], the “IN-GCN2 interaction (%)” value rises from 51.17% to 117.57%.

First: COc1cc2c3c(c1O)-c1cc(O)ccc1CC3N(C)CC2 (centres unmarked) [NSC785186]
Second: COc1ccc2c(c1O)-c1c(OC)c(OC)cc3c1[C@H](C2)N(C)CC3 [NSC32979]
The “IN-GCN2 interaction (%)” value of the first is lower: 59.88% for the first, 119.47% for the second.

Going from `COc1ccc(O)c2c(=O)c3c(OC)cc4c(c3oc12)[C@@H]1C=CO[C@@H]1O4` [NSC178249] to `COc1cc([C@H]2c3cc(O)c(OC)cc3C[C@H]3C(=O)OC[C@H]23)ccc1O` [NSC4586], the “IN-GCN2 interaction (%)” value rises from 73.18% to 86.55%.

Compared with `CC1=CC(=O)C2=C(C)CCC3C(C)C(=O)OC3C12` (centres unmarked) [NSC156236], `C[C@@H]1C[C@@H]2CCCC(O)=C2C(=O)O1` [NSC112906] is higher in “IN-GCN2 interaction (%)” value: 75.72% for the first, 126.27% for the second.

Compared with `CC(=O)O[C@H]1C[C@H](O[C@H]2[C@@H](O)C[C@H](O[C@H]3[C@@H](O)C[C@H](O[C@H]4CC[C@@]5(C)[C@H](CC[C@@H]6[C@@H]5CC[C@]5(C)[C@@H](C7=CC(=O)OC7)[C@@H](O)C[C@]65O)C4)O[C@@H]3C)O[C@@H]2C)O[C@H](C)[C@H]1O[C@@H]1O[C@H](CO)[C@@H](O)[C@H](O)[C@H]1O` [NSC7535], `CC(=O)O[C@H]1C[C@H](O[C@H]2[C@@H](O)C[C@H](O[C@H]3[C@@H](O)C[C@H](O[C@H]4CC[C@@]5(C)[C@H](CC[C@@H]6[C@@H]5C[C@@H](O)[C@]5(C)[C@@H](C7=CC(=O)OC7)CC[C@]65O)C4)O[C@@H]3C)O[C@@H]2C)O[C@H](C)[C@H]1O[C@@H]1O[C@H](CO)[C@@H](O)[C@H](O)[C@H]1O` [NSC7533] is higher in “IN-GCN2 interaction (%)” value: 83.30% for the first, 107.72% for the second.

First: COc1ccc(C(=O)O[C@H]2CC[C@@]3(C)[C@@H]4CC[C@H]5[C@]6(O)C[C@H](O)[C@@]7(O)[C@@H](CN8C[C@@H](C)CC[C@H]8[C@@]7(C)O)[C@]6(O)C[C@@]53O[C@]24O)cc1OC [NSC7524]
Second: CC[C@]12CN3CCc4c([nH]c5ccccc45)[C@@](C(=O)OC)(c4cc5c(cc4OC)N(C)[C@H]4[C@@](O)(C(=O)OC)[C@H](OC(C)=O)[C@]6(CC)C=CCN7CC[C@]54[C@@H]76)C[C@@H](C3)[C@H]1O2 [NSC90636]
The “IN-GCN2 interaction (%)” value of the first is higher: 106.09% for the first, 49.62% for the second.

Going from `C=C1C(=O)O[C@@H]2/C=C(/CO)CC/C=C(/CO)C[C@@H](OC(=O)C(C)C)[C@@H]12` [NSC295426] to `C=C1C(=O)O[C@@H]2C[C@@]3(C)CCC[C@H](C)C3=C[C@H]12` [NSC302289], the “IN-GCN2 interaction (%)” value rises from 56.21% to 117.43%.

First: CC1=C[C@H](O)[C@@H](O)[C@]2(C)[C@H]3[C@@]4(O)OC[C@@]35[C@@H](C[C@@H]12)OC(=O)C[C@H]5[C@@H](C)[C@H]4O [NSC79404]
Second: C=C1[C@@H](C)[C@H]2[C@H](Cc3ccccc3)NC(=O)C23[C@H](OC(C)=O)/C=C/[C@@](C)(O)C[C@@H](C)C/C=C/[C@H]3[C@@H]1O (some centres unmarked) [NSC305222]
The “IN-GCN2 interaction (%)” value of the first is lower: 87.44% for the first, 109.95% for the second.

Compared with `COc1ccc2c(c1)O[C@H]1c3ccc(O)cc3OC[C@@H]21` [NSC350085], `COc1cc(O)c(C(=O)/C=C/c2ccccc2)c(OC)c1` [NSC51351] is lower in “IN-GCN2 interaction (%)” value: 73.66% for the first, 51.53% for the second.

Compared with `c1ccc2c(c1)cc1c3c(cc4c(c32)OCO4)CCN1` [NSC785156], `COc1cccc2c1cc([N+](=O)[O-])c1c(C(=O)O)cc3c(c12)OCO3` [NSC11926] is higher in “IN-GCN2 interaction (%)” value: 39.07% for the first, 137.25% for the second.

Going from `O=[N+]([O-])[O-].c1ccc2c(c1)[nH]c1c2cc[n+]2cc3c(cc12)CCCC3` [NSC21728] to `Cc1c2ccncc2c(C)c2c1[nH]c1ccccc12` [NSC71795], the “IN-GCN2 interaction (%)” value rises from 107.16% to 107.18%.

Going from `C/C=C(/C)C(=O)O[C@H]1CCN2CC=C(COC(=O)[C@@](O)([C@H](C)OC)C(C)(C)O)[C@H]12` [NSC30625] to `COC(=O)C1=COC(C)C2CN3CCc4c([nH]c5cc(OC)c(OC)cc45)C3CC12.O=C(O)CC(O)(CC(=O)O)C(=O)O` (centres unmarked) [NSC72715], the “IN-GCN2 interaction (%)” value falls from 106.60% to 63.54%.

Compared with `COc1c2c(c3c(c1OC)c(=O)c1ccccc1n3C)OCO2` [NSC34758], `COc1cc2c(c3c1c(=O)c1ccccc1n3C)C=CC(C)(C)O2` [NSC403169] is lower in “IN-GCN2 interaction (%)” value: 105.30% for the first, 89.07% for the second.

Compared with `CC[C@]12CCCN3CC[C@]4(C(=C(C(=O)OC)C1)Nc1ccccc14)[C@@H]32` [NSC785180], `COc1ccc2c(c1)[C@@]13CCN4CC5=CCO[C@H]6CC(=O)N2[C@H]1[C@H]6[C@H]5C[C@H]43` [NSC72862] is higher in “IN-GCN2 interaction (%)” value: 67.39% for the first, 85.38% for the second.

First: CC(=O)O[C@@]1(C)C[C@@H]([C@H](O)CC2CC(=O)NC(=O)C2)C(=O)[C@@H](C)C1 [NSC32743]
Second: COC1C(=O)CCC2(CO2)C1(O)C1(C)OC1CC=C(C)C (centres unmarked) [NSC141538]
The “IN-GCN2 interaction (%)” value of the first is lower: 79.33% for the first, 103.23% for the second.

First: O=C([O-])c1nc(=O)[nH]c(=O)[nH]1.[K+] [NSC28841]
Second: O=c1[nH]cnc2nc[nH]c12 [NSC14665]
The “IN-GCN2 interaction (%)” value of the first is lower: 85.56% for the first, 108.10% for the second.

First: O[C@@H]1[C@@H](O)[C@@H](O)CN2CC[C@H](O)[C@@H]12 [NSC614552]
Second: O=C(O)C1OC(O)C(O)C(O)C1O (centres unmarked) [NSC9248]
The “IN-GCN2 interaction (%)” value of the first is higher: 134.45% for the first, 110.72% for the second.

First: COc1ccc2[nH]c3c(C)c4ccncc4c(C)c3c2c1 [NSC69187]
Second: C=C[C@H]1CN2CC[C@H]1C[C@H]2C(=O)c1ccnc2ccc(OC)cc12 [NSC15307]
The “IN-GCN2 interaction (%)” value of the first is lower: 42.76% for the first, 84.16% for the second.

Going from `COc1cc(OC)c(C(=O)/C=C/c2ccc(OC)c(OC)c2)c(OC)c1` [NSC75527] to `COc1cccc(C=O)c1O` [NSC2150], the “IN-GCN2 interaction (%)” value falls from 89.20% to 88.39%.

Compared with `C1CCC(NC2CCCCC2)CC1.COC1C(OC(=O)/C=C/C=C/C=C/C=C/C(=O)O)CCC2(CO2)C1C1(C)OC1CC=C(C)C` (centres unmarked) [NSC58368], `CO[C@@H]1C[C@@H](C[C@H]2CC[C@H](C)[C@H]([C@@H](C)C(=O)[O-])O2)O[C@]2(O[C@](C)([C@H]3CC[C@@](C)([C@@H]4O[C@@H]([C@H]5O[C@@](O)(CO)[C@H](C)C[C@@H]5C)C[C@@H]4C)O3)C[C@H]2C)[C@@H]1C.[Na+]` [NSC292567] is higher in “IN-GCN2 interaction (%)” value: 95.05% for the first, 95.66% for the second.

Going from `COC(=O)[C@H]1[C@H](O)[C@H](C)[C@@H](O)[C@](C)(O)/C=C(\C)C2=C3C(=C(C)C(=O)c4c(O)c(c(C)c(OC(C)=O)c43)NC(=O)/C(C)=C/C=C\[C@](C)(O)[C@@H](O)[C@@H](C)[C@H]1O)OCO2` [NSC156219] to `CO[C@@H]1[C@@H](O[C@@H]2O[C@H](C)[C@@H](O[C@H]3C[C@@](C)(O)[C@@H](OC(=O)CC(C)C)[C@H](C)O3)[C@H](N(C)C)[C@H]2O)[C@@H](CC=O)C[C@@H](C)C(=O)/C=C/[C@@H]2O[C@H]2C[C@@H](C)OC(=O)C[C@H]1OC(C)=O` [NSC51001], the “IN-GCN2 interaction (%)” value rises from 73.43% to 99.20%.

Compared with `O=C(O)C1C2CC3OC(=O)C1C3C2` (centres unmarked) [NSC12444], `C[C@H]1O[C@H](OC2[C@@H](O)[C@@H](O)C(O)[C@H](O)[C@H]2O)[C@@H](N)C[C@@H]1N=C(N)C(=O)O` (some centres unmarked) [NSC100858] is higher in “IN-GCN2 interaction (%)” value: 94.03% for the first, 98.15% for the second.

Compared with `O=C1C(O)=C(c2ccccc2)C(=O)C(O)=C1c1ccccc1` [NSC44175], `O=C1c2cc(O)c(O)cc2OC(c2ccc(O)c(O)c2)C1O` (centres unmarked) [NSC36398] is lower in “IN-GCN2 interaction (%)” value: 117.13% for the first, 108.22% for the second.

First: C/C=C/C(=O)O [NSC8751]
Second: CC(C)C[C@H](N)C(=O)O [NSC46709]
The “IN-GCN2 interaction (%)” value of the first is higher: 85.97% for the first, 84.16% for the second.

Going from `CN(C)[C@@H]1C(O)=C(C(N)=O)C(=O)[C@@]2(O)C(O)=C3C(=O)c4c(O)ccc(Cl)c4[C@@](C)(O)[C@H]3C[C@@H]12` [NSC13252] to `C[C@H](N)C(=O)N[C@@H]1[C@H]2C(=C(O)C[C@@H](O)[C@@H]2O)C(=O)O[C@]1(C)C(Cl)Cl` [NSC325014], the “IN-GCN2 interaction (%)” value rises from 93.93% to 94.06%.

Compared with `COc1cc(C)c2c(c1C=O)Oc1c(c(C)c(O)c3c1C(O)OC3=O)OC2=O` (centres unmarked) [NSC87511], `COc1c(O)ccc2c1-c1c3c(cc4c1[C@H](C2)NCC4)OCO3` [NSC785148] is lower in “IN-GCN2 interaction (%)” value: 159.91% for the first, 69.85% for the second.

First: CCCCC[C@@H](O)[C@H]1C(=O)O[C@H](C)[C@@H](O)/C=C/C=C/C=C/C=C/C=C(\C)[C@@H](O)[C@H](O)[C@H](O)C[C@H](O)C[C@H](O)C[C@H](O)C[C@H](O)C[C@@H]1O [NSC105388]
Second: CC(CCC/C=C/CCCN(C)C(=N)N)CC(C)C1OC(=O)C(C)C(O)/C=C/C(C)C(O)C(C)C(O)C(C)C(O)CCCC(O)CC2(O)OC(CC(OC(=O)CC(=O)O)CC(O)CC(O)C(C)C(O)/C=C/C=C/C1C)CC(O)C2O (centres unmarked) [NSC107041]
The “IN-GCN2 interaction (%)” value of the first is higher: 86.99% for the first, 57.24% for the second.

Compared with `CC(O)CCC(=O)c1ccoc1` (centres unmarked) [NSC349438], `COC1=CC(=O)C(C)=CC1=O` [NSC3071] is higher in “IN-GCN2 interaction (%)” value: 84.65% for the first, 99.07% for the second.

First: CO/N=C1\CC(C)N2C(=O)C(C(C)C)NC(=O)C(NC(=O)c3c4nc5c(C(=O)NC6C(=O)NC(C(C)C)C(=O)N7C(C)CC(O)C7C(=O)N(C)CC(=O)N(C)C(C(C)C)C(=O)OC6C)ccc(C)c5oc-4c(C)c(=O)c3N)C(CO)OC(=O)C(C)N(C)C(=O)CN(C)C(=O)C12 (centres unmarked) [NSC237671]
Second: c1cc2c(c3c1C[C@@H]1NCCc4cc5c(c-3c41)OCO5)OCO2 [NSC785157]
The “IN-GCN2 interaction (%)” value of the first is higher: 81.33% for the first, 72.19% for the second.

Same assay, conditions: screen, single dose 100 µM, single replicate; residual AlphaLISA signal normalized to DMSO control; listed as 36437

`C=C1C(=O)OC2CC1C(OC(C)=O)C/C(C)=C/CC/C(C)=C\CCC2(C)O` (centres unmarked) [NSC36437] was tested, and the “IN-GCN2 interaction (%)” value was 73.91%.

Same assay, conditions: screen, single dose 100 µM, single replicate; residual AlphaLISA signal normalized to DMSO control; listed as 99843

For `N#Cc1cn([C@@H]2O[C@H](CO)[C@@H](O)[C@H]2O)c2ncnc(N)c12` [NSC99843], the “IN-GCN2 interaction (%)” value was 116.98%.

Reference: article PMC12390684 (Viruses, 2025)
